Source: PMC8445792 (Applied Biological Chemistry, 2021)

Experiments:
[1] = target: H1N1 NA (A/California/04/2009) (Influenza A virus (A/California/04/2009(H1N1)), UniProt C3W5S3); test: biochemical; settings: read-out: % Inhibition ± SE H1N1 NA
[2] = target: H5N1 NA (A/Anhui/1/2005) (Influenza A virus (A/Anhui/1/2005(H5N1)), UniProt A0A0C5AGB3); test: biochemical; settings: read-out: % Inhibition ± SE H5N1 NA

Row | Structure (SMILES) | inhibition at 100 µg/mL [1] | inhibition at 100 µg/mL [2]
1 | COc1cc(C(=O)/C=C/c2ccc(OCc3ccccc3)c(OC)c2)ccc1O [Compound 2c] | 1 ± 4% | 
2 | O=C(/C=C/c1ccc([N+](=O)[O-])cc1)c1ccc(OC2CCCC2)cc1 [Compound 4b] | 5 ± 5% | 15 ± 3%
3 | O=C(/C=C/c1ccc(F)cc1)c1ccc(OCc2ccccc2)cc1 [Compound 3b] | 2 ± 4% | 18 ± 3%
4 | CC(C)Oc1ccc(C(=O)/C=C/c2ccc(F)cc2)cc1 [Compound 1b] | 5 ± 8% | 0%
5 | COc1cc(/C=C/C(=O)c2ccc(O)cc2)ccc1OCc1ccccc1 [Compound 3c] | 2 ± 4% | 7 ± 8%
6 | O=C(/C=C/c1ccc([N+](=O)[O-])cc1)c1ccc(O)cc1 [Compound 2a] | 16 ± 2% | 21 ± 2%
7 | COc1cc(C=O)ccc1O [Vanillin, reference compound] | 86 ± 2% | 84 ± 4%
8 | O=C(O)c1ccc(/C=C/C(=O)c2ccc(O)cc2)cc1 [Compound 3a] | 19 ± 2% | 27%
9 | O=C(/C=C/c1ccc(F)cc1)c1ccc(O)cc1 [Compound 1a] | 21 ± 7% | 23 ± 11%
